What was measured:
Assay type in all cases: physicochemical
[1] = Investigation of hygroscopicity (weight change and powder X-ray diffraction after storage in a desiccator); settings: for transformation of crystalline form (powder X-ray diffraction before and after storage): 25° C. in 93% RH for 14 days; for weight change caused by absorption of moisture: 93% RH at 25° C., stored up to 14 days
Experimental: The powder X-ray diffraction spectra were measured by means of a Rigaku Corporation's RAD-2B (target: Cu; Voltage: 40 kV; current: 20 mA; scanning speed: 4°/minute; measurement error: 2θ±0.2°).
Form I crystals and Form II crystals of Compound A, approximately 1 g each, were precisely weighed in weighing bottles, which were then kept in a desiccator of 93% RH at 25° C. […] In addition, the powder X-ray diffraction spectra were measured before and after preservation. The results are shown in FIG. 3 (weight change of Form I crystal), FIG. 4 (weight change of Form II crystal), FIG. 5 (powder X-ray diffraction spectrum of Form I crystal), and FIG. 6 (powder X-ray diffraction spectrum of Form II crystal).

[2] = Investigation of transformation mediated by solvents (suspension in toluene, crystalline form confirmed by DSC); settings: 50 mg suspended in 1 ml of toluene, stirred overnight
Experimental: The differential scanning calorimetry in Example 1 and Example 2 was made by means of a Perkin Elmer DSC7 (temperature-raising rate: 10° C./minute; the range of measurement: 50° C. (constant temperature 1 minute)→180° C.). The differential scanning calorimetry in Experimental Example 4 was made by means of Shimadzu Corporation's DSC-50 (temperature-raising rate: 2° C./minute; the range of measurement: room temperature→220° C.).
The influence of toluene (solvent) on the crystalline form of Compound A was investigated.
Form I crystals and Form II crystals of Compound A, 50 mg each, were weighed and respectively suspended in 1 ml of toluene, and stirred overnight. Thereafter, the crystals were separated by filtration and dried, of which the crystalline form was confirmed by a differential scanning calorimetry.

[3] = Investigation of thermodynamic stability by differential scanning calorimetry
Experimental: The differential scanning calorimetry in Experimental Example 5 was made by means of a Perkin Elmer DSC7 (for temperature-raising rate of 1° C./minute, the range of measurement: 130° C.→160° C.; and for temperature-raising rate of 2, 5, 7 or 10° C./minute, the range of measurement: 120° C.→170° C.).
The thermodynamic stability of the crystal of Compound A was investigated by differential scanning calorimetry.
The differential scanning calorimetry was carried out at a temperature-raising rate of 1, 2 or 5° C./minute for Form I crystal of Compound A and at 1, 5, 7 or 10° C./minute for Form II crystal. The results are shown in FIG. 7 (a chart of differential scanning calorimetry in Form I crystal), FIG. 8 and FIG. 9 (a chart of differential scanning calorimetry in Form II crystal).

weight change caused by absorption of moisture ([1]; listed as Form I crystals)	transformation of crystalline form in solvent [2]	endothermic peaks in differential scanning calorimetry ([3]; temperature-raising rate of 1, 2 or 5° C./minute)	transformation of crystalline form (powder X-ray diffraction before and after storage) [1]	weight change caused by absorption of moisture [1]	peak of Form I crystal in differential scanning calorimetry ([3]; temperature-raising rate of 10° C./minute)	SMILES	transformation of crystalline form (powder X-ray diffraction before and after storage) ([1]; listed as Form I crystals)	transformation of crystalline form in solvent ([2]; listed as form II crystal)	peak of Form I crystal in differential scanning calorimetry ([3]; lower temperature-raising rate: 7° C./minute, 5° C./minute, 1° C./minute)
2.3%	transformed into Form II crystal	only one endothermic peak				Cc1ccc(-c2nc(CCCC[C@H]3CO[C@@](C)(C(=O)O)OC3)c(C)o2)cc1 [Form I crystal, 2-methyl-c-5-[4-[5-methyl-2-(4-methylphenyl)-1,3-oxazol-4-yl]butyl]-1,3-dioxane-r-2-carboxylic acid]	transformation of crystalline form (from Form I to Form II) was recognized		
			no transformation of crystalline form	no change of weight	no peak of Form I crystal was confirmed	Cc1ccc(-c2nc(CCCC[C@H]3CO[C@@](C)(C(=O)O)OC3)c(C)o2)cc1 [Form II crystal, 2-methyl-c-5-[4-[5-methyl-2-(4-methylphenyl)-1,3-oxazol-4-yl]butyl]-1,3-dioxane-r-2-carboxylic acid]		no transformation of crystalline form occurs	a peak resulting from Form I crystal was recognized
